The subject of one test is SK Hep1. Description: Cell viability alone and in combination with sorafenib. Particulars: 1 μM alone. It counts as cell-based, Human. The protocol:
(§1) Human liver cancer cell lines (SK Hep1 and Huh-7) were treated with control (no treatment), 0.1 μM of the compound of Example 1, 1 μM of sorafenib, and 0.1 μM of the compound of Example 1/1 μM of sorafenib, and the cell viability of SK Hep1 and Huh-7 was confirmed.

The test system of the next test is Huh-7. Described as above. Format: cell-based, Human. Conditions: 1 μM alone. Here is the method: as §1
The test system of test [1] is Hep3B. Description: Clonogenic assay. Particulars: 2.5 and 5 μM, 10 days. It counts as cell-based. Here is the method:
(§2) HepG2 and Hep3B were each seeded in 12-well plates at the density of 3×10^3 cells/well and cultured for 24 hours. Then, Sorafenib and the compound of Example 1 were treated thereto at 2.5 and 5 μM each and cultured for 10 days. Upon completion of the culture, the cells were washed with PBS, fixed with 37% formaldehyde, and stained with 0.01% crystal violet. After staining, the cells were washed with distilled water and the colonies of stained cells were photographed.

The subject of test [2] is HepG2. Description: Clonogenic assay. Format: cell-based. Particulars: 2.5 and 5 μM, 10 days. The protocol: as §2
The test system of test [3] is Hep3B. Description: WST-8 cell viability assay, hepatocellular carcinoma cell line. Format: cell-based. Conditions: 24, 48 and 72 hours. The protocol:
(§3) Specifically, the WST-8 assay to check the cell viability of HepG2 and Hep3B, which are hepatocellular carcinoma cell lines shown in FIGS. 7A-7C and 8A-8C, was performed as follows. HepG2 and Hep3B were each seeded in 96-well plates at the density of 5×10^3 cells/well and cultured for 24 hours. Then, Sorafenib and OPT-0139 were diluted stepwise at a twofold concentration and then treated to the plates at different concentrations, followed by culture for 24, 48, and 72 hours. […] of WST-8 solution was added to each well of the plate, and the absorbance was measured with a microplate reader using a 450 nm optical filter to measure the formazan produced by the reducing factors in living cells.
(§4) Therefore, the number of living cells could be measured by measuring absorbance.
(In general: Tetrazolium dyes change colour on reduction, which living cells bring about.)

Test [4] deals with HepG2. The description is as above. Format: cell-based. Conditions: 24, 48 and 72 hours. The protocol:
as §3, §4

For a further test, the system named is OVCAR-3. Kind of test: Cell viability alone and in combination with cisplatin. It counts as cell-based, Human. Conditions: 1 μM alone. The protocol:
(§5) Human ovarian cancer cell lines (SKOV-3 and OVCAR-3) were treated with control (no treatment), 0.1 μM of the compound of Example 1, 1 μM of cisplatin, and 0.1 μM of the compound of Example 1/1 μM of cisplatin, and the cell viability of SKOV-3 and OVCAR-3 was confirmed.

The subject of another test is SKOV-3. The test is described as above. It counts as cell-based, Human. Conditions: 1 μM alone. Here is the method:
as §5

Each structure is given as a SMILES string.

`CNC(=O)c1cc(Oc2ccc(NC(=O)Nc3ccc(Cl)c(C(F)(F)F)c3)cc2)ccn1` [Sorafenib, reference compound]: the cell viability result with SK Hep1 is “suppressed”; in the test on Huh-7, “suppressed”; in the test with Hep3B [3] it was “decreased the cell viability dose and time dependently”; in the test on HepG2 [4], “decreased the cell viability dose and time dependently”. Besides, the “number of colonies, treated vs not treated” value with Hep3B [1] and in the test on HepG2 [2] was “clear difference in the number of colonies” throughout.
In the case of `N.N.[Cl][Pt][Cl]` [cisplatin, reference compound], the cell viability entry with OVCAR-3 and in the test with SKOV-3 was “suppressed” each time.

Source of the values: US12605382B2, “Pharmaceutical composition for preventing, alleviating, or treating cancer containing 2,6-dichloro-4-(4-(4-hydroxycyclohexylamino)-7H- pyrrolo[2,3-d]pyrimidin-5-yl)phenol as active ingredient” (JBKLAB CO., LTD., priority 2021, dated 2026).
